Experimental findings from patent US20100144722A1, “NOVEL HETEROCYCLIC COMPOUNDS AS GATA MODULATORS” (Dr. Reddy's Laboratories Ltd., priority 2008, published 2010) are described below.

The test system of this assay is GATA1. In words: GATA Assay (GATA luciferase reporter in transfected HepG2 cells). It is filed as cell-based, Human. The settings on record: HepG2 cells transfected with GATA Translucent Reporter Vector, luciferase normalized to total protein. As for the experimental part:
Human HepG2 (ATCC) cells were grown in Eagle's Minimum Essential Media (MEM) containing 10% heat inactivated Fetal Bovine Serum (FBS) (Invitrogen) and 5 mL Penicillin-Streptomycin (Invitrogen) in T75 flasks (Corning) in a 37° C./5% CO2 tissue culture incubator (Thermo Electron Corporation) prior to the study. 96-well plates (Corning) were seeded in MEM containing 10% FBS to yield ˜50% confluency. The following day, cells were transfected using FuGENE 6 transfection reagent (Roche) and […] GATA Translucent Reporter Vector (Panomics) according the manufacturer's (Roche) protocol and incubated for about 10-19 h. The next day, the cells were treated with equal volumes of vehicle, dimethyl sulfoxide (DMSO) (Hybri-Max Sterile Filtered Sigma Aldrich) or compounds of formula (I) (in DMSO) diluted in MEM containing 1% FBS. The treated cells were incubated about 8-19 h. The next day the treatment media was removed and the cells were lysed and assayed for luciferase activity using the luciferase assay system (Promega) and using the Envision plate reader (Perkin Elmer). The lysates were also used to measure total protein content with the MicroBCA protein assay kit (Pierce) using the Multiskan Ascent plate reader at 570 nm. Luciferase values were normalized to total protein and fold induction was calculated.
Compounds that show an increase of ≧40% in luciferase levels at ≦20 μm concentration were considered as GATA activators.

On to `O=C(O)C1(c2ccc(Nc3nc(NC4CCCC4)cc(-c4ccccc4)n3)cc2)CCC1` [Example 16, 1-[4-(4-cyclopentylamino-6-phenyl-pyrimidin-2-ylamino)-phenyl]-cyclobutane-carboxylic acid], for which the “GATA1 Activation (Fold Change Vs Control)” value reads like this: (5μ compound) 2.44 Fold; (10μ compound) 2.13 Fold.

On to `O=C(O)C1(c2ccc(Nc3nc(NC4CCCC4)cc(C4CCCC4)n3)cc2)CCC1` [Example 25, 1-[4-(4-cyclopentyl-6-cyclopentylamino-pyrimidin-2-ylamino)-phenyl]-cyclobutanecarboxylic acid], for which the “GATA1 Activation (Fold Change Vs Control)” value by setting is: (5μ compound) 3.69 Fold; (10μ compound) 3.32 Fold.

On to `Cc1noc(C)c1-c1cc(N2CCOCC2)nc(Nc2ccc(C3(C(=O)O)CCC3)cc2)n1` [Example 30, 1-{4-[4-(3,5-dimethyl-isoxazol-4-yl)-6-morpholin-4-yl-pyrimidin-2-ylamino]-phenyl}-cyclobutanecarboxylic acid], for which the “GATA1 Activation (Fold Change Vs Control)” value reads like this: (5μ compound) 1.64 Fold; (10μ compound) 1.74 Fold.

For the compound `CC(C)(C)Nc1nc(Nc2ccc(C3(C(=O)O)CCC3)cc2)cc(-c2ccccc2)n1` [Example 55, 1-[4-(2-tert-butylamino-6-phenyl-pyrimidin-4-ylamino)-phenyl]-cyclobutane-carboxylic acid], the “GATA1 Activation (Fold Change Vs Control)” value runs as follows: (5μ compound) 2.86 Fold; (10μ compound) 2.40 Fold.

Turning to `CC(C)Oc1cc(-c2ccccc2)nc(Nc2ccc(C3(C(=O)O)CCC3)cc2)n1` [Example 68, 1-[4-(4-isopropoxy-6-phenyl-pyrimidin-2-ylamino)-phenyl]-cyclobutane-carboxylic acid], the “GATA1 Activation (Fold Change Vs Control)” value turned out to be 2.57 Fold (5μ compound) and 2.44 Fold (10μ compound).
